Patent publication US4537769A (priority 1982, dated 1985)
Like-named read-outs stand apart in the source and are kept apart here.

System: H7N1 neuraminidase
Format: biochemical, influenza virus
Settings: for Units of Activity: 37° C. for 24 hours; for Neuraminidase Activity-24 Hrs Post 37° C.: H7N1 vaccine
[1] = H7N1 vaccine with additive at .03%
[2] = H7N1 vaccine with additive at .07%
[3] = H7N1 vaccine with additive at .02%
[4] = H7N1 vaccine with additive at .05%
[5] = H7N1 vaccine with additive at .04%

**Q.** `C[C@H](N)C(=O)O` [Alanine] was tested. Which “Units of Activity” value [1] did it give?
**A.** 9.0 Nanomoles of N--acetyl neurami

**Q.** Which “Units of Activity” value [2] does the source give for `N[C@@H](CC(=O)O)C(=O)O` [Aspartic Acid] here?
**A.** 5.9 Nanomoles of N--acetyl neurami

**Q.** With `N[C@@H](CCC(=O)O)C(=O)O` [Glutamic Acid] as the compound, how does the “Units of Activity” value (H7N1 vaccine with additive at .18%) read?
**A.** 4.5 Nanomoles of N--acetyl neurami

**Q.** For `NCC(=O)O` [Glycine], which “Units of Activity” value [3] is on record?
**A.** 8.5 Nanomoles of N--acetyl neurami

**Q.** What does the source list for `N[C@@H](Cc1c[nH]cn1)C(=O)O` [Histidine]?
**A.** Units of Activity [3]: 13.1 Nanomoles of N--acetyl neurami; Neuraminidase Activity-24 Hrs Post 37° C. (No. 1: Histidine 0.02 % w/v): 13.0; Neuraminidase Activity-24 Hrs Post 37° C. (No. 2: Histidine 0.05 % w/v): 17.3; Neuraminidase Activity-24 Hrs Post 37° C. (No. 3: Histidine 0.09 % w/v): 23.8; Neuraminidase Activity-24 Hrs Post 37° C. (No. 4: Histidine 0.13 % w/v): 27.9

**Q.** How did the “Units of Activity” value [4] turn out when `CC[C@H](C)[C@H](N)C(=O)O` [Isoleucine] was run?
**A.** 5.2 Nanomoles of N--acetyl neurami

**Q.** Which “Units of Activity” value (H7N1 vaccine with additive at .08%) does the source give for `CC(C)C[C@H](N)C(=O)O` [Leucine] here?
**A.** 7.3 Nanomoles of N--acetyl neurami

**Q.** How did the “Units of Activity” value [2] turn out when `NCCCC[C@H](N)C(=O)O` [Lysine] was run?
**A.** 8.5 Nanomoles of N--acetyl neurami

**Q.** How did the “Units of Activity” value [3] turn out when `CSCC[C@H](N)C(=O)O` [Methionine] was run?
**A.** 8.9 Nanomoles of N--acetyl neurami

**Q.** For `N[C@@H](Cc1ccccc1)C(=O)O` [Phenylalanine], which “Units of Activity” value [5] is on record?
**A.** 9.1 Nanomoles of N--acetyl neurami

**Q.** What does the source list for `O=C(O)[C@@H]1CCCN1` [Proline]?
**A.** Units of Activity (H7N1 vaccine with additive at .09%): 12.3 Nanomoles of N--acetyl neurami; Neuraminidase Activity-24 Hrs Post 37° C. (No. 5: Proline 0.09 % w/v): 12.3; Neuraminidase Activity-24 Hrs Post 37° C. (No. 6: Proline 0.18 % w/v): 17.5; Neuraminidase Activity-24 Hrs Post 37° C. (No. 7: Proline 0.36 % w/v): 26.2; Neuraminidase Activity-24 Hrs Post 37° C. (No. 8: Proline 0.54 % w/v): 30.7

**Q.** For `N[C@@H](CO)C(=O)O` [Serine], which “Units of Activity” value [4] is on record?
**A.** 9.1 Nanomoles of N--acetyl neurami

**Q.** How did the “Units of Activity” value [5] turn out when `C[C@@H](O)[C@H](N)C(=O)O` [Threonine] was run?
**A.** 6.7 Nanomoles of N--acetyl neurami

**Q.** With `N[C@@H](Cc1c[nH]c2ccccc12)C(=O)O` [Tryptophan] as the compound, how does the “Units of Activity” value (H7N1 vaccine with additive at .01%) read?
**A.** 10.4 Nanomoles of N--acetyl neurami

**Q.** For `N[C@@H](Cc1ccc(O)cc1)C(=O)O` [Tyrosine], which “Units of Activity” value [1] is on record?
**A.** 4.4 Nanomoles of N--acetyl neurami

**Q.** With `CC(C)[C@H](N)C(=O)O` [Valine] as the compound, how does the “Units of Activity” value (H7N1 vaccine with additive at .06%) read?
**A.** 6.7 Nanomoles of N--acetyl neurami
